From patent US20240066152A1, “CONTRAST AGENT FOR DETECTING CARTILAGE DAMAGE AND METHOD AND PROGRAM FOR EXAMINING CARTILAGE DAMAGE USING SAID CONTRAST AGENT” (NATIONAL UNIVERSITY CORPORATION HOKKAIDO UNIVERSITY, priority 2020, published 2024)

Test system: articular cartilage of the rabbit knee joint (both femoral condyles), ACLT model
Assay: MRI evaluation of articular cartilage damage in the anterior cruciate ligament transection (ACLT) model using ^17O-labeled water
Type: in vivo, Japanese white rabbits
Method: An ACLT model was created using 14-week-old male Japanese white rabbits to induce cartilage damage in the knee joint. The rabbits were anesthetized intravenously with pentobarbital (30 mg/kg) and ketamine (50 mg/kg), followed by inhalation anesthesia with isoflurane (1 to 4%) for maintenance anesthesia. The anterior surface of the knee joint on the operative side was shaved, was disinfected with povidone-iodine, and then an analgesic (buprenorphine 0.02 mg/kg) was subcutaneously administered by injection. Skin incision of about 5 cm was placed on the medial side of the patella, and the joint capsule was incised in a similar position. The patella was dislocated laterally, and the knee joint was deeply flexed to expose the anterior cruciate ligament of the femoral intercondylar part, which was separated using a No. 11 scalpel. After washing the inside of the joint with a physiological saline solution, the joint capsule and the skin were sutured using 3-0 nylon thread. Postoperatively, euthanasia was performed if wound infection was observed or in the case of an inability to stand.
It has been reported that in the ACLT model, degeneration of cartilage surface begins at 4 weeks postoperatively and occurs in the entire cartilage layer from 8 weeks postoperatively (Makoto Yoshioka et al. Characterization of a model of osteoarthritis in the rabbit knee. Osteoarthritis and Cartilage, 1996, 4 (2): 87-98), and thus five rabbits were slaughtered and euthanized with pentobarbital (200 mg/kg) each at 4 weeks and 8 weeks postoperatively, and cartilage damage was evaluated by MRI and macroscopically and histologically.
MRI Imaging Using a 3T-MRI apparatus (MAGNETOM Prisma, Siemens), imaging of the rabbit knee joint on the operative side was performed. The affected rabbit limb was disarticulated at the thigh and was fixed at the knee joint extension to avoid the influence of body movement during imaging. A 24G Surflo needle was inserted from the anterior surface of the knee joint through the patellar tendon and was indwelled in the joint. […]

## ^17O-labeled water
Immediately after administration (fourth imaging), calculated from average T2-weighted signal values in each ROI, 4 weeks postoperatively
  change over time in ^17O concentration in ROI 1 and ROI 2 (damaged cartilage region): showed an increase in the ^17O concentration
Representative case 4 weeks postoperatively, about 11 minutes after administration (sixth imaging), 0.5 ml saline containing 20-mol % ^17O-labeled water into knee joint of disarticulated limb
  ^17O concentration (^17O map calculated from signal values of T2-weighted image): higher in the region where cartilage damage was observed
With administration of ^17O-labeled water, calculated from average T2-weighted signal values in each ROI, 4 weeks postoperatively
  change over time in ^17O concentration in ROI 3 and ROI 4 (normal cartilage region): showed no tendency of an increase in the ^17O concentration
